Article PMC7369637, “Inhibition of Resistance-Refractory P. falciparum Kinase PKG Delivers Prophylactic, Blood Stage, and Transmission-Blocking Antiplasmodial Activity” (Cell Chemical Biology, 2020)

System: metabolite levels in Pf trophozoites and schizonts
Assay: Metabolomics (UHPLC-MS) of treated trophozoites and schizonts
Type: cell-based, Plasmodium falciparum
Protocol: Metabolomics experiments were performed as described elsewhere ([Murithi et al., 2019]). […] Following several washes, metabolites were extracted by 90% methanol containing 0.5 μM ^13C^15N-labelled aspartate as an internal standard. Nitrogen-dried samples were stored at -80°C. Samples were resuspended in high-performance liquid chromatography (HPLC) grade water that contained 1 μM chlorpropamide as an internal standard. They were then analyzed by ultra-high-performance liquid chromatography mass spectrometry UHPLC-MS ([Allman et al., 2016]). Data analysis was performed using the el-MAVEN software and the Metaboanalyst package in R Studio ([Murithi et al., 2019]).

What does the source list for `O=C1C(O)=C([C@H]2CC[C@H](c3ccc(Cl)cc3)CC2)C(=O)c2ccccc21` [ATQ, Atovaquone]?
Log2 fold change in 2-Hydroxy-2-methylbutanedioic acid level (schizonts): -0.013; Log2 fold change in 2_3-Diphosphoglyceric acid level (schizonts): -0.049; Log2 fold change in 3-phosphoglycerate level (schizonts): -0.461; Log2 fold change in 4-aminobutyrate level (schizonts): 0.163; Log2 fold change in 4-phosphopantothenate level (schizonts): -0.471; Log2 fold change in 6-phospho-D-gluconate level (schizonts): -0.038; Log2 fold change in ADP-D-glucose level (schizonts): 0.078; Log2 fold change in CDP level (schizonts): -0.939; Log2 fold change in CMP level (schizonts): -0.776; Log2 fold change in D-glucosamine-1/6-phosphate level (schizonts): -0.254; Log2 fold change in D-sedoheptulose-1/7-phosphate level (schizonts): -0.253; Log2 fold change in DL-Pipecolic Acid level (schizonts): 0.155; Log2 fold change in DLH level (schizonts): 0.054; Log2 fold change in DLS level (schizonts): 0.295; Log2 fold change in FAD level (schizonts): 0.00635; Log2 fold change in FMN level (schizonts): -0.114; Log2 fold change in GDP level (schizonts): -0.131; Log2 fold change in GMP level (schizonts): 0.068; Log2 fold change in HVDD level (schizonts): 0.015; Log2 fold change in Hexose level (schizonts): 0.028; Log2 fold change in IMP level (schizonts): 0.230; Log2 fold change in N-Acetyl-L-alanine level (schizonts): -0.209; Log2 fold change in N-acetyl-L-ornithine level (schizonts): 0.067; Log2 fold change in N-acetyl-glutamate level (schizonts): 0.069; Log2 fold change in N-acetyl-glutamine level (schizonts): -0.075; Log2 fold change in N-carbamoyl-L-aspartate level (schizonts): 2.103; Log2 fold change in NAD+ level (schizonts): -0.089; Log2 fold change in NADP+ level (schizonts): -0.036; Log2 fold change in NADPH level (schizonts): 0.265; Log2 fold change in Octulose 8/1P level (schizonts): -0.088; Log2 fold change in Octulose Bisphosphate level (schizonts): -0.059; Log2 fold change in PD level (schizonts): 0.272; Log2 fold change in PE level (schizonts): 0.257; Log2 fold change in PEE level (schizonts): 0.222; Log2 fold change in PEEK level (schizonts): 0.220; Log2 fold change in PVNF level (schizonts): -0.058; Log2 fold change in Pyroglutamic acid level (schizonts): -0.420; Log2 fold change in Ribose-5-phosphate level (schizonts): -0.347; Log2 fold change in S-adenosyl-L-homocysteine level (schizonts): -0.090; Log2 fold change in Sedoheptulose bisphosphate level (schizonts): -0.159; Log2 fold change in UDP level (schizonts): -1.390; Log2 fold change in UDP-D-glucose level (schizonts): -0.006; Log2 fold change in UDP-D-glucuronate level (schizonts): -0.062; Log2 fold change in UDP-N-acetyl-glucosamine level (schizonts): -0.391; Log2 fold change in UMP level (schizonts): -1.267; Log2 fold change in a-ketoglutarate level (schizonts): -0.084; Log2 fold change in acetyl-CoA level (schizonts): -0.850; Log2 fold change in acetyl-aspartate level (schizonts): -0.355; Log2 fold change in alanine/sarcosine level (schizonts): -0.266; Log2 fold change in arginine level (schizonts): -0.203; Log2 fold change in asparagine level (schizonts): -0.008; Log2 fold change in aspartate level (schizonts): -0.839; Log2 fold change in coenzyme A level (schizonts): -0.075; Log2 fold change in cyclic-AMP level (schizonts): -0.213; Log2 fold change in cytidine level (schizonts): -0.213; Log2 fold change in dCDP level (schizonts): -0.147; Log2 fold change in dCMP level (schizonts): -0.462; Log2 fold change in dCTP level (schizonts): -0.058; Log2 fold change in dGDP/ADP level (schizonts): -0.147; Log2 fold change in dGMP/AMP level (schizonts): -0.148; Log2 fold change in dTDP level (schizonts): -1.164; Log2 fold change in dTMP level (schizonts): -1.035; Log2 fold change in dTTP level (schizonts): -0.979; Log2 fold change in dihydroorotate level (schizonts): 3.181; Log2 fold change in folate level (schizonts): -0.209; Log2 fold change in fructose-1-6-bisphosphate level (schizonts): -0.277; Log2 fold change in fructose-6-phosphate level (schizonts): -0.212; Log2 fold change in fumarate level (schizonts): -0.532; Log2 fold change in glutamate level (schizonts): 0.117; Log2 fold change in glutamine level (schizonts): -0.138; Log2 fold change in glutathione disulfide level (schizonts): -0.224; Log2 fold change in glutathione level (schizonts): -0.005; Log2 fold change in guanosine level (schizonts): 0.426; Log2 fold change in histidine level (schizonts): -0.171; Log2 fold change in hydroxyproline/Aminolevulinate level (schizonts): -0.254; Log2 fold change in hypoxanthine level (schizonts): -0.139; Log2 fold change in inosine level (schizonts): -0.136; Log2 fold change in isoleucine level (schizonts): -0.252; Log2 fold change in lysine level (schizonts): 0.587; Log2 fold change in malate level (schizonts): -0.393; Log2 fold change in maleic acid level (schizonts): -0.266; Log2 fold change in methionine level (schizonts): -0.241; Log2 fold change in nicotinate level (schizonts): -0.183; Log2 fold change in orotate level (schizonts): -1.303; Log2 fold change in pantothenate level (schizonts): -0.167; Log2 fold change in phenylalanine level (schizonts): -0.316; Log2 fold change in phosphoenolpyruvate level (schizonts): -0.095; Log2 fold change in proline level (schizonts): -0.320; Log2 fold change in pyruvate level (schizonts): -1.011; Log2 fold change in ribose level (schizonts): -0.223; Log2 fold change in ribose-phosphate level (schizonts): -0.313; Log2 fold change in ribulose-5-phosphate level (schizonts): -0.261; Log2 fold change in serine level (schizonts): 0.028; Log2 fold change in sn-glycerol-3-phosphate level (schizonts): -0.021; Log2 fold change in succinate/Methylmalonic acid level (schizonts): -0.382; Log2 fold change in thiamine level (schizonts): -0.051; Log2 fold change in threonine/homoserine level (schizonts): -0.072; Log2 fold change in tryptophan level (schizonts): -0.203; Log2 fold change in tyrosine level (schizonts): -0.165; Log2 fold change in xanthosine level (schizonts): -0.209; Log2 fold change in xanthosine-5-phosphate level (schizonts): -0.537; Log2 fold change in 2-Hydroxy-2-methylbutanedioic acid level (trophozoites): -0.127; Log2 fold change in 2_3-Diphosphoglyceric acid level (trophozoites): -0.381; Log2 fold change in 3-phosphoglycerate level (trophozoites): -0.429; Log2 fold change in 4-aminobutyrate level (trophozoites): 0.101; Log2 fold change in 4-phosphopantothenate level (trophozoites): -0.459; Log2 fold change in 6-phospho-D-gluconate level (trophozoites): -0.286; Log2 fold change in ADP-D-glucose level (trophozoites): -0.046; Log2 fold change in CDP level (trophozoites): -0.509; Log2 fold change in CMP level (trophozoites): -0.007; Log2 fold change in D-glucosamine-1/6-phosphate level (trophozoites): -0.044; Log2 fold change in D-sedoheptulose-1/7-phosphate level (trophozoites): -0.528; Log2 fold change in DL-Pipecolic Acid level (trophozoites): -0.217; Log2 fold change in DLH level (trophozoites): 0.019; Log2 fold change in DLS level (trophozoites): -0.123; Log2 fold change in FAD level (trophozoites): -0.090; Log2 fold change in FMN level (trophozoites): -0.124; Log2 fold change in GDP level (trophozoites): 0.014; Log2 fold change in GMP level (trophozoites): 0.614; Log2 fold change in HVDD level (trophozoites): 0.032; Log2 fold change in Hexose level (trophozoites): -0.376; Log2 fold change in IMP level (trophozoites): 0.044; Log2 fold change in N-Acetyl-L-alanine level (trophozoites): -0.316; Log2 fold change in N-acetyl-L-ornithine level (trophozoites): 0.096; Log2 fold change in N-acetyl-glutamate level (trophozoites): -0.170; Log2 fold change in N-acetyl-glutamine level (trophozoites): -0.082; Log2 fold change in N-carbamoyl-L-aspartate level (trophozoites): 3.058; Log2 fold change in NAD+ level (trophozoites): -0.186; Log2 fold change in NADP+ level (trophozoites): -0.065; Log2 fold change in NADPH level (trophozoites): -0.700; Log2 fold change in Octulose 8/1P level (trophozoites): -0.033; Log2 fold change in Octulose Bisphosphate level (trophozoites): -0.267; Log2 fold change in PD level (trophozoites): 0.177; Log2 fold change in PE level (trophozoites): 0.343; Log2 fold change in PEE level (trophozoites): -0.149; Log2 fold change in PEEK level (trophozoites): 0.046; Log2 fold change in PVNF level (trophozoites): -0.949; Log2 fold change in Pyroglutamic acid level (trophozoites): -0.555; Log2 fold change in Ribose-5-phosphate level (trophozoites): -0.276; Log2 fold change in S-adenosyl-L-homocysteine level (trophozoites): -0.313; Log2 fold change in Sedoheptulose bisphosphate level (trophozoites): -0.304; Log2 fold change in UDP level (trophozoites): -0.826; Log2 fold change in UDP-D-glucose level (trophozoites): -0.168; Log2 fold change in UDP-D-glucuronate level (trophozoites): -0.164; Log2 fold change in UDP-N-acetyl-glucosamine level (trophozoites): -0.499; Log2 fold change in UMP level (trophozoites): -0.377; Log2 fold change in a-ketoglutarate level (trophozoites): -0.00422; Log2 fold change in acetyl-CoA level (trophozoites): -0.783; Log2 fold change in acetyl-aspartate level (trophozoites): -0.358; Log2 fold change in alanine/sarcosine level (trophozoites): -0.389; Log2 fold change in arginine level (trophozoites): -0.197; Log2 fold change in asparagine level (trophozoites): -0.111; Log2 fold change in aspartate level (trophozoites): -0.858; Log2 fold change in coenzyme A level (trophozoites): -0.813; Log2 fold change in cyclic-AMP level (trophozoites): -0.306; Log2 fold change in cytidine level (trophozoites): -0.308; Log2 fold change in dCDP level (trophozoites): 0.078; Log2 fold change in dCMP level (trophozoites): 0.286; Log2 fold change in dCTP level (trophozoites): -0.396; Log2 fold change in dGDP/ADP level (trophozoites): -0.020; Log2 fold change in dGMP/AMP level (trophozoites): 0.757; Log2 fold change in dTDP level (trophozoites): -0.522; Log2 fold change in dTMP level (trophozoites): 0.797; Log2 fold change in dTTP level (trophozoites): -1.044; Log2 fold change in dihydroorotate level (trophozoites): 4.182; Log2 fold change in folate level (trophozoites): -0.409; Log2 fold change in fructose-1-6-bisphosphate level (trophozoites): -0.330; Log2 fold change in fructose-6-phosphate level (trophozoites): -0.341; Log2 fold change in fumarate level (trophozoites): -0.377; Log2 fold change in glutamate level (trophozoites): 0.025; Log2 fold change in glutamine level (trophozoites): -0.211; Log2 fold change in glutathione disulfide level (trophozoites): -0.238; Log2 fold change in glutathione level (trophozoites): -0.129; Log2 fold change in guanosine level (trophozoites): -0.368; Log2 fold change in histidine level (trophozoites): -0.281; Log2 fold change in hydroxyproline/Aminolevulinate level (trophozoites): -0.316; Log2 fold change in hypoxanthine level (trophozoites): -0.322; Log2 fold change in inosine level (trophozoites): -0.490; Log2 fold change in isoleucine level (trophozoites): -0.515; Log2 fold change in lysine level (trophozoites): 0.274; Log2 fold change in malate level (trophozoites): -0.381; Log2 fold change in maleic acid level (trophozoites): -0.226; Log2 fold change in methionine level (trophozoites): -0.384; Log2 fold change in nicotinate level (trophozoites): -0.467; Log2 fold change in orotate level (trophozoites): 0.364; Log2 fold change in pantothenate level (trophozoites): -0.383; Log2 fold change in phenylalanine level (trophozoites): -0.490; Log2 fold change in phosphoenolpyruvate level (trophozoites): -0.226; Log2 fold change in proline level (trophozoites): -0.424; Log2 fold change in pyruvate level (trophozoites): -0.797; Log2 fold change in ribose level (trophozoites): -0.358; Log2 fold change in ribose-phosphate level (trophozoites): -0.355; Log2 fold change in ribulose-5-phosphate level (trophozoites): -0.161; Log2 fold change in serine level (trophozoites): -0.067; Log2 fold change in sn-glycerol-3-phosphate level (trophozoites): 0.064; Log2 fold change in succinate/Methylmalonic acid level (trophozoites): -0.878; Log2 fold change in thiamine level (trophozoites): -0.352; Log2 fold change in threonine/homoserine level (trophozoites): -0.156; Log2 fold change in tryptophan level (trophozoites): -0.225; Log2 fold change in tyrosine level (trophozoites): -0.394; Log2 fold change in xanthosine level (trophozoites): -0.306; Log2 fold change in xanthosine-5-phosphate level (trophozoites): -0.737
